Here are results for 50 compounds from US5001154A, “Fervescence composition” (K.K. Ueno Seiyaku Oyo Kenkyujo, priority 1987, dated 1991).

Type in all cases: in vivo, Wister male rats
Assay [1] in a line: fervescence activity by intravenous injection (rising of body temperature), 1 mg/kg. The settings on record: 1 mg/kg intravenous, urethane-anesthetized rats. As to the method:
fervescence activity by intravenous injection Test animals were Wister male rats (8 weeks old) weighing 200±10 g. The rats were applied to anesthesia by intraperitoneal injection of 1.25 g/kg of urethane. Each test drug was dissolved into ethyl alcohol. The ethyl alcohol solution was diluted with Ringer's solution at least 50 times just before use and 1 mg/kg of the each test drug was intravenously administered. Body temperature was measured in the same manner as in Example 1. Ringer's solution containing ethyl alcohol was administered as control. Rising of body temperature is shown by the rising degree (°C.) from the temperature before administration.

The nature of assay [2]: fervescence (recovery of body temperature) activity at hemorrhage load. The settings on record: rat loaded with hemorrhage. The method, then: fervescence (recovery of body temperature) activity at hemorrhage load
Wister male rats (weight: 200 g) were subcutaneously injected on the back with 1.5 g/kg of urethane, subjected to anesthesia. Hemorrhage was then induced by withdrawal of blood by puncture of the heart for the total volume of 3 ml equivalent to 1.5% of the body weight. After kept in a room for 60 minutes, the rats were administered intravenously with test solutions prepared by dissolving test drugs into Ringer's solution so as to administer the rat at a dose of 0.5 or 1 mg/kg, and change of the body temperature was observed. Ringer's solution was administered as control.
In the figures, (1), (2) and (3) correspond to the results of administration of doses 1 mg/kg, 0.5 mg/kg and Ringer's solution alone, respectively.

Assay [3] can be described thus: fervescence activity by intracerebroventricular injection (rising of body temperature). The settings on record: 400 ng in 3 μl into lateral ventricle, urethane-anesthetized rats, rectal temperature. The method, then:
fervescence activity by intracerebroventricular injection
Wister male rats (8 weeks old) were used as test animals.
Rats were applied to anesthesia by intraperitoneal injection with 1.25 g/kg of urethane and a stainless guide cannula was inserted into the lateral ventricle for administration of a test drug according to Pellegrino's Rat brain atras.
Each test drug was dissolved into an artificial cerebrospinal fluid and 400 ng as drug in 3 μl was injected through the injection cannula for 15 seconds. The artificial cerebrospinal fluid alone was injected as control. Body temperature was measured continuously at the rectum. Rising of body temperature is shown by the rising degree (°C.) from the temperature before administration.

Consider `CCCCC[C@H](O)/C=C/[C@H]1[C@H](O)CC(=O)[C@@H]1CCCCCCC(=O)O` [compound 57], for which the “Rising of Body Temperature” value in assay [1] was found to be 0 °C.
`CCCCC(F)C(=O)CC[C@H]1[C@H](O)CC(=O)[C@@H]1CC(=O)CCCCC(=O)OCC` (stereo partly shown) [compound 14]: the “Rising of Body Temperature” value in assay [1] was “+1.0 °C”.
Regarding `CCCCCC(=O)CC[C@H]1[C@H](C)CC(=O)[C@@H]1CC(=O)CCCCC(=O)OCC` [compound 20], the “Rising of Body Temperature” value was “+1.3 °C” in assay [1], “+0.5 °C” in assay [2] (0.5 mg/kg intravenous) and “+0.8 °C” in assay [2] (1 mg/kg intravenous).
In the case of `CCCCCC(=O)CC[C@H]1[C@H](O)CC(=O)[C@@H]1CCCCC=CC(=O)OC` [compound 4], the “Rising of Body Temperature” value in assay [1] is “+0.8 °C”.
On the same count and under the same terms, to `CCCCC(C)(C)C(=O)CC[C@H]1[C@H](O)CC(=O)[C@@H]1CC(=O)CCCCC(=O)OCC` [compound 13] belongs “+1.1 °C”.
As to `CCCCCC(=O)CC[C@H]1[C@H](O)CC(=O)[C@@H]1CC(=O)CCCCC(=O)O` [compound 6], the “Rising of Body Temperature” value in assay [3] was “+0.8 °C”; in assay [1], 0 °C.
On to `CCCCC(C)(C)C(=O)CC[C@H]1[C@H](O)CC(=O)[C@@H]1C/C=C\CCCC(=O)OCC` [compound 36], for which the “Rising of Body Temperature” value in assay [1] was “+0.6 °C”.
For the compound `CCCCC(O)C(=O)CC[C@H]1[C@H](O)CC(=O)[C@@H]1C/C=C\CCCC(=O)OCC` (stereo partly shown) [compound 37], the “Rising of Body Temperature” value in assay [1] is “+0.2 °C”.
As to `CCCCC[C@H](O)/C=C/[C@H]1[C@H](O)CC(=O)[C@@H]1C/C=C\CCCC(=O)O` [compound 58], in assay [1], the “Rising of Body Temperature” value was “+0.7 °C”.
As to `CCCCCC(=O)CC[C@H]1[C@H](C)CC(=O)[C@@H]1CC(=O)CCCCC(=O)OC` [compound 19], the “Rising of Body Temperature” value in assay [1] is “+1.0 °C”.
Same read-out and setting: to `CCCCCC(=O)CC[C@H]1[C@H](O)CC(=O)[C@@H]1CC(=O)CCCCC(=O)OCCCC` [compound 10] belongs “+0.2 °C”.
Consider `CCCCCC(=O)CC[C@H]1[C@H](O)CC(=O)[C@@H]1C/C=C\CC=CC(=O)OC` [compound 29], for which, in assay [1], the “Rising of Body Temperature” value is “+1.0 °C”.
For the compound `CCCCC(C)C(=O)CC[C@H]1[C@H](O)CC(=O)[C@@H]1CC(=O)CCCCC(=O)OC` (stereo partly shown) [compound 11], the “Rising of Body Temperature” value in assay [1] was “+1.5 °C”.
On to `CCCCCC(=O)CC[C@H]1[C@H](O)CC(=O)[C@@H]1C/C=C\CC(C)CC(=O)OC` (stereo partly shown) [compound 30], for which the “Rising of Body Temperature” value in assay [1] is “+1.7 °C”.
Take `CCCCC(F)C(=O)CC[C@H]1[C@H](C)CC(=O)[C@@H]1C/C=C\CCCC(=O)OCC` (stereo partly shown) [compound 42]: the “Rising of Body Temperature” value in assay [1] was “+1.4 °C”.
For the compound `CCCCC(F)C(=O)CC[C@H]1[C@H](O)CC(=O)[C@@H]1C/C=C\CCCC(=O)OC` (stereo partly shown) [compound 39], in assay [1], the “Rising of Body Temperature” value was “+0.9 °C”.
Same read-out and setting: to `CC(C)=CCCCCC(=O)CC[C@H]1[C@H](O)CC(=O)[C@@H]1C/C=C\CCCC(=O)O` [compound 51] belongs “+0.2 °C”; to `CCCCC(F)C(=O)/C=C/[C@H]1[C@H](O)CC(=O)[C@@H]1C/C=C\CCCC(=O)OC` (stereo partly shown) [compound 56], “+1.0 °C”.
Consider `CCCCCC(=O)CC[C@H]1[C@H](C)CC(=O)[C@@H]1C/C=C\CCCC(=O)OCC` [compound 43], for which, in assay [1], the “Rising of Body Temperature” value is “+0.2 °C”.
Turning to `COCCCCC(C)(C)C(=O)CC[C@H]1[C@H](O)CC(=O)[C@@H]1C/C=C\CCCC(=O)OC` [compound 50], the “Rising of Body Temperature” value in assay [1] was “+0.2 °C”.
For the compound `CCCCC(F)C(=O)CC[C@H]1[C@H](C)CC(=O)[C@@H]1CC(=O)CCCCC(=O)OCC` (stereo partly shown) [compound 21], the “Rising of Body Temperature” value in assay [1] is “+1.1 °C”.
Take `CCCCCC(=O)CC[C@H]1[C@H](O)CC(=O)[C@@H]1CC(=O)CCCCC(=O)OCC` [compound 8]: the “Rising of Body Temperature” value in assay [3] is “+0.4 °C”; in assay [1], “+0.6 °C”; in assay [2] (0.5 mg/kg intravenous), “+0.7 °C”; in assay [2] (1 mg/kg intravenous), “+0.8 °C”.
`CCCCC(C)C(=O)CC[C@H]1[C@H](O)CC(=O)[C@@H]1C/C=C\CCCC(=O)OC` (stereo partly shown) [compound 32]: the “Rising of Body Temperature” value in assay [1] is “+1.4 °C”.
Turning to `CCCCCCCC(=O)CC[C@H]1[C@H](C)CC(=O)[C@@H]1C/C=C\CCCC(=O)OC` [compound 55], in assay [1], the “Rising of Body Temperature” value is “+0.2 °C”.
Same read-out and setting: as for `CCCCC(F)C(=O)CC[C@H]1[C@H](O)CC(=O)[C@@H]1C/C=C\CCCC(=O)O` (stereo partly shown) [compound 38], the entry is “+0.3 °C”; as for `CCCCCC(F)C(=O)CC[C@H]1[C@H](O)CC(=O)[C@@H]1C/C=C\CCCC(=O)OC` (stereo partly shown) [compound 41], “+0.8 °C”.
The same measure, in the same setting: as for `CCOC(=O)CCC/C=C\C[C@H]1C(=O)C[C@@H](O)[C@@H]1CCC(=O)CCCC(C)C` [compound 46], the entry is “+0.6 °C”; as for `CCCCCC(=O)CC[C@H]1[C@H](O)CC(=O)[C@@H]1C/C=C\CCCC(=O)OCc1ccccc1` [compound 27], “+0.3 °C”; as for `COCCCCCC(=O)CC[C@H]1[C@H](O)CC(=O)[C@@H]1C/C=C\CCCC(=O)OC` [compound 47], “+0.3 °C”.
For `CCCCC(C)C(=O)CC[C@H]1[C@H](O)CC(=O)[C@@H]1C/C=C\CC(C)CC(=O)OC` (stereo partly shown) [compound 34], in assay [1], the “Rising of Body Temperature” value is “+1.0 °C”.
On to `CCCCCC(=O)CC[C@H]1[C@H](O)CC(=O)[C@@H]1C/C=C\CC(C)CC(=O)OCC` (stereo partly shown) [compound 31], for which the “Rising of Body Temperature” value in assay [1] was “+1.0 °C”.
In the case of `CCCCC(C)C(=O)CC[C@H]1[C@H](O)CC(=O)[C@@H]1C/C=C\CCCC(=O)OCC` (stereo partly shown) [compound 33], in assay [1], the “Rising of Body Temperature” value was “+0.9 °C”.
Same read-out and setting: to `CCCCC(C)C(=O)CC[C@H]1[C@H](O)CC(=O)[C@@H]1CC(=O)CCCCC(=O)OCC` (stereo partly shown) [compound 12] belongs “+0.9 °C”.
Regarding `COCCCCCC(=O)CC[C@H]1[C@H](O)CC(=O)[C@@H]1C/C=C\CC(C)CC(=O)OC` (stereo partly shown) [compound 49], the “Rising of Body Temperature” value in assay [1] is “+0.2 °C”.
As for `CCCCCC(=O)CC[C@H]1[C@H](O)CC(=O)[C@@H]1CC(=O)CCCCC(=O)OC` [compound 7], the “Rising of Body Temperature” value in assay [3] is “+0.6 °C”; in assay [1], “+0.8 °C”.
In the case of `CCCCC(C)(C)C(=O)CC[C@H]1[C@H](O)CC(=O)[C@@H]1C/C=C\CCCC(=O)OC` [compound 35], the “Rising of Body Temperature” value in assay [1] is “+1.0 °C”.
On to `CCCCCCC(=O)CC[C@H]1[C@H](O)CC(=O)[C@@H]1CC(=O)CCCCC(=O)OCC` [compound 18], for which the “Rising of Body Temperature” value is “+0.7 °C” in assay [1], “+0.4 °C” in assay [2] (0.5 mg/kg intravenous) and “+0.8 °C” in assay [2] (1 mg/kg intravenous).
Consider `COCCCCCC(=O)CC[C@H]1[C@H](O)CC(=O)[C@@H]1C/C=C\CC=CC(=O)OC` [compound 48], for which the “Rising of Body Temperature” value in assay [1] is “+0.2 °C”.
Take `CCCCC(F)C(=O)CC[C@H]1[C@H](O)CC(=O)[C@@H]1C/C=C\CCCC(=O)OCC` (stereo partly shown) [compound 40]: in assay [1], the “Rising of Body Temperature” value was “+1.4 °C”.
On to `CCCCCC(=O)CC[C@H]1[C@H](O)CC(=O)[C@@H]1CC(=O)CCCCC(=O)OCC` (relative stereo) [compound 9], for which, in assay [1], the “Rising of Body Temperature” value was “+0.7 °C”.
For the compound `CCCCCCCC(=O)CC[C@H]1[C@H](O)CC(=O)[C@@H]1C/C=C\CCCC(=O)OC` [compound 53], the “Rising of Body Temperature” value in assay [1] is “+0.5 °C”.
As for `COC(=O)CCCCC(=O)C[C@H]1C(=O)C[C@@H](CO)[C@@H]1CCC(=O)CCCC(C)C` [compound 17], the “Rising of Body Temperature” value in assay [1] is “+0.4 °C”.
With `CCCCCC(=O)CC[C@H]1[C@H](O)CC(=O)[C@@H]1CCCCCCC(=O)O` [compound 1], the “Rising of Body Temperature” value in assay [3] was “+0.4 °C”; in assay [1], 0 °C.
On to `CCCCCC(=O)CC[C@H]1[C@H](O)CC(=O)[C@@H]1C/C=C\CCCC(=O)OCCO` [compound 28], for which the “Rising of Body Temperature” value in assay [1] is “+0.4 °C”.
Still for that read-out and setting: to `CCC[C@H](C)CC(=O)CC[C@H]1[C@H](O)CC(=O)[C@@H]1C/C=C\CCCC(=O)OC` [compound 44] belongs “+0.2 °C”; to `CCCCCCCC(=O)CC[C@H]1[C@H](O)CC(=O)[C@@H]1CCCCCCC(=O)OC` [compound 5], “+0.4 °C”.
`COC(=O)CCC/C=C\C[C@H]1C(=O)C[C@@H](O)[C@@H]1CCC(=O)CCCCC=C(C)C` [compound 52]: the “Rising of Body Temperature” value in assay [1] was “+0.2 °C”.
`CCCCCC(=O)CC[C@H]1[C@H](O)CC(=O)[C@@H]1C/C=C\CCCC(=O)O` [compound 22]: the “Rising of Body Temperature” value in assay [3] was “+0.7 °C”; in assay [1], 0 °C.
As for `CCCCCCCC(=O)CC[C@H]1[C@H](O)CC(=O)[C@@H]1C/C=C\CCCC(=O)OCC` [compound 54], the “Rising of Body Temperature” value in assay [1] was “+0.2 °C”.
Take `CCCCCC(=O)CC[C@H]1[C@H](O)CC(=O)[C@@H]1CCCCC=CC(=O)O` [compound 3]: in assay [1], the “Rising of Body Temperature” value was 0 °C.
